Measured values: patent publication US12344603B2 (Genentech, Inc., priority 2020, dated 2025)

Target: IRE1α (Homo sapiens (Human), UniProt O75460, D688N)
Experiment: IRE1α TR-FRET competition binding assay (IRE1α HTRF)
Details: TR-FRET competition binding to kinase domain of IRE1α
Protocol: IRE1α TR-FRET Competition Binding Assay. The affinity of compound binding to the kinase domain of IRE1α was determined using a time-resolved fluorescence resonance energy transfer (TR-FRET) competition assay.
The purified protein (final concentration 0.25 nM) was pre-incubated with anti-His Europium labeled antibody (Life Technologies PV5596, final concentration 2 nM) for one hour at 4° C. in TR-FRET Assay Buffer (50 mM HEPES, pH 7.5, 10 mM MgCl2, 0.083 mM Brij 35, 1 mM DTT, and 0.1% bovine gamma globulin) prior to addition to test compounds. An Alexa fluor 647-labeled probe based on an ATP competitive inhibitor was added to a final concentration of 2 nM. Reactions were carried out for one hour at room temperature in a final volume of 20 μL in 384 well white ProxiPlates (Perkin Elmer 6008289). Binding of the probe to the IRE1α protein was detected in an Envision instrument (PerkinElmer) equipped with a TRF laser option and a LANCE/Delfia Dual/Bias D400/D630 mirror (Ex 347 nm, 1st Em 665 nm, 2nd Em 615 nm).

Chain of IRE1α (O75460 547-977 D688N): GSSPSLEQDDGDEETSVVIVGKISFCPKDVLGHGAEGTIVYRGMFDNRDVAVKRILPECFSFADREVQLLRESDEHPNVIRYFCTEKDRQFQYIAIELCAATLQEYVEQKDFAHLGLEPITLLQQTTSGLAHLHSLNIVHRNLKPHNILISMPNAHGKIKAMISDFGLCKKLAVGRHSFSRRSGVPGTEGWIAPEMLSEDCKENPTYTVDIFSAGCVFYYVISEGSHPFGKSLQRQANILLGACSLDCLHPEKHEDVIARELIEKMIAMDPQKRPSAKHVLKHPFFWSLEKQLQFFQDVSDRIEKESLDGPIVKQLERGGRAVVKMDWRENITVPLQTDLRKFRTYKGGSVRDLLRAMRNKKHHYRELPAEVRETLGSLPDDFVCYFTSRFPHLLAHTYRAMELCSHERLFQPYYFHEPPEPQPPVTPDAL

Structure (SMILES) | IC50 [nM]
CC(C)n1c(=O)c(-c2cc(F)c(NS(=O)(=O)CCC(F)(F)F)c(F)c2)nc2cnc(N[C@@H]3CC[C@@H](N(C)C)[C@H](F)C3)nc21 (stereo in doubt) [Compound 168B, N-(4-(2-((4-(Dimethylamino)-3-fluorocyclohexyl)amino)-8-isopropyl-7-oxo-7,8-dihydropteridin-6-yl)-2,6-difluorophenyl)-3,3,3-trifluoropropane-1-sulfonamide] | 0.23
CC(C)n1c(=O)c(-c2ccc(NS(=O)(=O)CCC(F)(F)F)c(F)c2)nc2cnc(N[C@H]3CC[C@H](N(C)C)[C@@H](F)C3)nc21 (stereo in doubt) [Compound 179A, N-(4-(2-((4-(Dimethylamino)-3-fluorocyclohexyl)amino)-8-isopropyl-7-oxo-7,8-dihydropteridin-6-yl)-2-fluorophenyl)-3,3,3-trifluoropropane-1-sulfonamide] | 0.22
CC(C)n1c(=O)c(-c2ccc(NS(=O)(=O)CCC(F)(F)F)c(F)c2)nc2cnc(N[C@@H]3CC[C@@H](N(C)C)[C@H](F)C3)nc21 (stereo in doubt) [Compound 179B, N-(4-(2-((4-(Dimethylamino)-3-fluorocyclohexyl)amino)-8-isopropyl-7-oxo-7,8-dihydropteridin-6-yl)-2-fluorophenyl)-3,3,3-trifluoropropane-1-sulfonamide] | 0.15
CC(C)n1c(=O)c(-c2ccc(NS(=O)(=O)Cc3ccc(F)cc3)c(F)c2)nc2cnc(N[C@@H]3CC[C@@H](N(C)C)[C@H](F)C3)nc21 (stereo in doubt) [Compound 181A, N-(4-(2-((4-(Dimethylamino)-3-fluorocyclohexyl)amino)-8-isopropyl-7-oxo-7,8-dihydropteridin-6-yl)-2-fluorophenyl)-1-(4-fluorophenyl)methanesulfonamide] | 0.16
CC(C)n1c(=O)c(-c2ccc(NS(=O)(=O)Cc3ccc(F)cc3)c(F)c2)nc2cnc(N[C@H]3CC[C@H](N(C)C)[C@@H](F)C3)nc21 (stereo in doubt) [Compound 181B, N-(4-(2-((4-(Dimethylamino)-3-fluorocyclohexyl)amino)-8-isopropyl-7-oxo-7,8-dihydropteridin-6-yl)-2-fluorophenyl)-1-(4-fluorophenyl)methanesulfonamide] | 0.15
CC(C)n1c(=O)c(-c2ccc(NS(=O)(=O)Cc3ccccc3)c(F)c2)nc2cnc(N[C@H]3CC[C@H](N(C)C)[C@@H](F)C3)nc21 (stereo in doubt) [Compound 192A, N-(4-(2-((4-(Dimethylamino)-3-fluorocyclohexyl)amino)-8-isopropyl-7-oxo-7,8-dihydropteridin-6-yl)-2-fluorophenyl)-1-phenylmethanesulfonamide] | 0.11
CC(C)n1c(=O)c(-c2ccc(NS(=O)(=O)Cc3ccccc3)c(F)c2)nc2cnc(N[C@@H]3CC[C@@H](N(C)C)[C@H](F)C3)nc21 (stereo in doubt) [Compound 192B, N-(4-(2-((4-(Dimethylamino)-3-fluorocyclohexyl)amino)-8-isopropyl-7-oxo-7,8-dihydropteridin-6-yl)-2-fluorophenyl)-1-phenylmethanesulfonamide] | 0.09
CC(C)n1c(=O)c(-c2ccc(NS(=O)(=O)CC3CC(F)(F)C3)c(F)c2)nc2cnc(N[C@H]3CC[C@H](N(C)C)[C@@H](F)C3)nc21 (stereo in doubt) [Compound 193A, 1-(3,3-Difluorocyclobutyl)-N-(4-(2-((4-(dimethylamino)-3-fluorocyclohexyl)amino)-8-isopropyl-7-oxo-7,8-dihydropteridin-6-yl)-2-fluorophenyl)methanesulfonamide] | 0.2
CC(C)n1c(=O)c(-c2ccc(NS(=O)(=O)CC3CC(F)(F)C3)c(F)c2)nc2cnc(N[C@@H]3CC[C@@H](N(C)C)[C@H](F)C3)nc21 (stereo in doubt) [Compound 193B, 1-(3,3-Difluorocyclobutyl)-N-(4-(2-((4-(dimethylamino)-3-fluorocyclohexyl)amino)-8-isopropyl-7-oxo-7,8-dihydropteridin-6-yl)-2-fluorophenyl)methanesulfonamide] | 0.17
Cn1c(=O)c(-c2ccc(NS(=O)(=O)Cc3ccccc3)c(F)c2F)cc2cnc(N[C@H]3CCCNC3)nc21 [Compound 1, (S)—N-(2,3-Difluoro-4-(8-methyl-7-oxo-2-(piperidin-3-ylamino)-7,8-dihydropyrido[2,3-d]pyrimidin-6-yl)phenyl)-1-phenylmethanesulfonamide] | 2.8
Cn1c(=O)c(-c2ccc(NS(=O)(=O)Cc3ccccc3)c(F)c2F)cc2cnc(N[C@@H]3CNC[C@@H](F)C3)nc21 [Compound 2, N-(2,3-Difluoro-4-(2-(((3S,5S)-5-fluoropiperidin-3-yl)amino)-8-methyl-7-oxo-7,8-dihydropyrido[2,3-d]pyrimidin-6-yl)phenyl)-1-phenylmethanesulfonamide] | 2.1
CCn1c(=O)c(-c2ccc(NS(=O)(=O)Cc3ccccc3)c(F)c2F)cc2cnc(N[C@H]3CCCNC3)nc21 [Compound 3, (S)—N-(4-(8-Ethyl-7-oxo-2-(piperidin-3-ylamino)-7,8-dihydropyrido[2,3-d]pyrimidin-6-yl)-2,3-difluorophenyl)-1-phenylmethanesulfonamide] | 0.68
Cn1c(=O)c(-c2cccc3c(NS(=O)(=O)CCC(F)(F)F)c(F)ccc23)cc2cnc(N[C@H]3CCCNC3)nc21 [Compound 4, (S)-3,3,3-Trifluoro-N-(2-fluoro-5-(8-methyl-7-oxo-2-(piperidin-3-ylamino)-7,8-dihydropyrido[2,3-d]pyrimidin-6-yl)naphthalen-1-yl)propane-1-sulfonamide] | 5
Cn1c(=O)c(-c2cccc3c(NS(=O)(=O)Cc4ccccc4)c(F)ccc23)cc2cnc(N[C@H]3CCCNC3)nc21 [Compound 5, (S)—N-(2-Fluoro-5-(8-methyl-7-oxo-2-(piperidin-3-ylamino)-7,8-dihydropyrido[2,3-d]pyrimidin-6-yl)naphthalen-1-yl)-1-phenylmethanesulfonamide] | 0.28
Cn1c(=O)c(-c2cc(F)c(NS(=O)(=O)Cc3ccccc3)c3ccccc23)cc2cnc(N[C@H]3CCCNC3)nc21 [Compound 6, (S)—N-(2-Fluoro-4-(8-methyl-7-oxo-2-(piperidin-3-ylamino)-7,8-dihydropyrido[2,3-d]pyrimidin-6-yl)naphthalen-1-yl)-1-phenylmethanesulfonamide] | 0.89
Cn1c(=O)c(-c2cc(F)c(NS(=O)(=O)CCC(F)(F)F)c3ccccc23)cc2cnc(N[C@H]3CCCNC3)nc21 [Compound 7, (S)-3,3,3-Trifluoro-N-(2-fluoro-4-(8-methyl-7-oxo-2-(piperidin-3-ylamino)-7,8-dihydropyrido[2,3-d]pyrimidin-6-yl)naphthalen-1-yl)propane-1-sulfonamide] | 5.9
CCCS(=O)(=O)Nc1c(F)ccc2c(-c3cc4cnc(N[C@H]5CCCNC5)nc4n(C)c3=O)cccc12 [Compound 8, (S)—N-(2-Fluoro-5-(8-methyl-7-oxo-2-(piperidin-3-ylamino)-7,8-dihydropyrido[2,3-d]pyrimidin-6-yl)naphthalen-1-yl)propane-1-sulfonamide] | 36
CC(C)n1c(=O)c(-c2ccc(NS(=O)(=O)Cc3ccccc3)c(F)c2F)cc2cnc(N[C@@H]3CNC[C@@H](F)C3)nc21 [Compound 9, N-(2,3-Difluoro-4-(2-(((3S,5S)-5-fluoropiperidin-3-yl)amino)-8-isopropyl-7-oxo-7,8-dihydropyrido[2,3-d]pyrimidin-6-yl)phenyl)-1-phenylmethanesulfonamide] | 0.28
O=c1c(-c2ccc(NS(=O)(=O)Cc3ccccc3)c(F)c2F)cc2cnc(N[C@@H]3CNC[C@@H](F)C3)nc2n1C1CC1 [Compound 10, N-(4-(8-cyclopropyl-2-(((3S,5S)-5-fluoropiperidin-3-yl)amino)-7-oxo-7,8-dihydropyrido[2,3-d]pyrimidin-6-yl)-2,3-difluorophenyl)-1-phenylmethanesulfonamide] | 1.1
O=c1c(-c2ccc(NS(=O)(=O)Cc3ccccc3)c(F)c2F)cc2cnc(N[C@@H]3CNC[C@@H](F)C3)nc2n1CC(F)F [Compound 11, N-(4-(8-(2,2-Difluoroethyl)-2-(((3S,5S)-5-fluoropiperidin-3-yl)amino)-7-oxo-7,8-dihydropyrido[2,3-d]pyrimidin-6-yl)-2,3-difluorophenyl)-1-phenylmethanesulfonamide] | 1.1
CCn1c(=O)c(-c2ccc(NS(=O)(=O)Cc3ccccc3)c(F)c2F)cc2cnc(N[C@@H]3CNC[C@@H](F)C3)nc21 [Compound 12, N-(4-(8-Ethyl-2-(((3S,5S)-5-fluoropiperidin-3-yl)amino)-7-oxo-7,8-dihydropyrido[2,3-d]pyrimidin-6-yl)-2,3-difluorophenyl)-1-phenylmethanesulfonamide] | 0.57
CCCS(=O)(=O)Nc1ccc(-c2cc3cnc(N[C@@H]4CNC[C@@H](F)C4)nc3n(CC)c2=O)c(F)c1F [Compound 13, N-(4-(8-Ethyl-2-(((3S,5S)-5-fluoropiperidin-3-yl)amino)-7-oxo-7,8-dihydropyrido[2,3-d]pyrimidin-6-yl)-2,3-difluorophenyl)propane-1-sulfonamide] | 8.3
CCn1c(=O)c(-c2ccc(NS(=O)(=O)CCC(F)(F)F)c(F)c2F)cc2cnc(N[C@@H]3CNC[C@@H](F)C3)nc21 [Compound 14, N-(4-(8-Ethyl-2-(((3S,5S)-5-fluoropiperidin-3-yl)amino)-7-oxo-7,8-dihydropyrido[2,3-d]pyrimidin-6-yl)-2,3-difluorophenyl)-3,3,3-trifluoropropane-1-sulfonamide] | 5
